How the values were obtained:
[1] = target: EcPhnD90-cpGFP.L1ADΔΔ.L297R,L301R (Escherichia coli, UniProt Q1R3F7, L323R/L327R, form not given); type: binding
[2] = target: EcPhnD (Escherichia coli, UniProt P16682); details: read-out: affinity; cited from earlier work
[3] = tested on: EcPhnD142-cpGFP; type: binding, Escherichia coli
[4] = tested on: EcPhnD87-cpGFP; type: binding, Escherichia coli
[5] = tested on: EcPhnD with cpGFP inserted at position 147; type: binding, Escherichia coli
[6] = target: EcPhnD-K181C:IANBD (Escherichia coli, UniProt P16682, K207C); assay: biochemical; type: binding
[7] = target: EcPhnD-Q17C:IANBD (Escherichia coli, UniProt P16682, Q43C); type: binding
[8] = target: EcPhnD-Q267C:acrylodan; details: read-out: Phosphonate affinities (Kd); cited from earlier work
[9] = target: the molecule itself; assay: crystal structure

Chain of EcPhnD-K181C:IANBD (P16682 27-338 K207C): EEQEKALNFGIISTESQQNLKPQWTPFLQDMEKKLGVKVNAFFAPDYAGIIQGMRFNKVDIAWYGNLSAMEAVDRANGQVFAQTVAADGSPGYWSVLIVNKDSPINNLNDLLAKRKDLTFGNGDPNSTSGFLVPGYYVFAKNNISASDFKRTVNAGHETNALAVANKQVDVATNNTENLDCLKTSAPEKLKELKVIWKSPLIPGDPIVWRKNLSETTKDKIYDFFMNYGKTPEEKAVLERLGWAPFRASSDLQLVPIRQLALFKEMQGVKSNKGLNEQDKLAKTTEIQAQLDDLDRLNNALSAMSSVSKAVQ
Chain of EcPhnD-Q17C:IANBD (P16682 27-338 Q43C): as the sequence (P16682 27-338 K207C) above, with Q17C, C181K counted along it

Molecule: NCCP(=O)(O)O [2AEP, 2-aminoethylphosphonate]
- ΔF/F0 increase [1]: 1.6
- Kd ([1]; read-out: Phosphonate affinities (Kd)): 37000 ± 7000 nM
- Kd [2]: ~5 nM
- affinity for 2AEP by ITC (in words) [3]: dramatically decreased affinity
- affinity for 2AEP by ITC (in words) [4]: high affinity
- affinity for 2AEP by ITC (in words) [5]: dramatically decreased affinity
- Kd [6]: 540 ± 40 nM
- ΔF/F0 [6]: −0.72±0.01
- Kd [7]: 11 ± 5 nM
- ΔF/F0 [7]: 1.2±0.1
- Kd [8]: 5 nM

Molecule: O=C(O)CNCP(=O)(O)O [Glyphosate (GP), Glyphosate]
- Kd [6]: 260000 ± 20000 nM
- Kd [8]: 650000 nM

B1: Selenomethionine-substituted EcPhnD (natural protein, E. coli, UniProt P16682 27-338, looked up)
chain: EEQEKALNFGIISTESQQNLKPQWTPFLQDMEKKLGVKVNAFFAPDYAGIIQGMRFNKVDIAWYGNLSAMEAVDRANGQVFAQTVAADGSPGYWSVLIVNKDSPINNLNDLLAKRKDLTFGNGDPNSTSGFLVPGYYVFAKNNISASDFKRTVNAGHETNALAVANKQVDVATNNTENLDKLKTSAPEKLKELKVIWKSPLIPGDPIVWRKNLSETTKDKIYDFFMNYGKTPEEKAVLERLGWAPFRASSDLQLVPIRQLALFKEMQGVKSNKGLNEQDKLAKTTEIQAQLDDLDRLNNALSAMSSVSKAVQ
modifications: selenomethionine in place of methionine
- stoichiometry N [9]: 2

B2: EcPhnD H157A (natural protein, E. coli, UniProt P16682 27-338, looked up)
chain: EEQEKALNFGIISTESQQNLKPQWTPFLQDMEKKLGVKVNAFFAPDYAGIIQGMRFNKVDIAWYGNLSAMEAVDRANGQVFAQTVAADGSPGYWSVLIVNKDSPINNLNDLLAKRKDLTFGNGDPNSTSGFLVPGYYVFAKNNISASDFKRTVNAGAETNALAVANKQVDVATNNTENLDKLKTSAPEKLKELKVIWKSPLIPGDPIVWRKNLSETTKDKIYDFFMNYGKTPEEKAVLERLGWAPFRASSDLQLVPIRQLALFKEMQGVKSNKGLNEQDKLAKTTEIQAQLDDLDRLNNALSAMSSVSKAVQ
- stoichiometry N [9]: 2
